Test results from US20260118350A1, “Fluorescent Probes for Peroxidase-Mediated Fluorescent Signal Amplification” (Seoul National University R&DB Foundation, priority 2024, published 2026).
Entries after “also recorded” stand apart in the source; their conditions may differ.

Assays:
[1] = Photophysical properties in buffer (absorption, fluorescence); assay type: physicochemical
Description: These photophysical properties render the JF probes suitable for detection in the RFP channel (excitation at 561 nm, fluorescence emission filter: 565-620 nm). […] The absorbance spectra largely shifted from 515 (pH 7.4) to 416 nm when the probe was incubated at pH 6.0. […] This property enables the detection of JF probes in the GFP channel; however, the fluorescence intensity was negligible compared to that of GFP or GFP variant proteins (mEosEM etc.).

organelle-targeted APEX2 = assay: Fixed-cell FLEX staining of organelle-targeted APEX2-POIs; assay type: cell-based, Human; conditions: fixed cells, PHEMS buffer 100 mM pH 7.4
Description: HeLa cells were transiently transfected with the APEX2-POI construct using PEI when cells reached approximately 70% confluency, following the protocol provided by the production company of PEI. After transfection and protein expression, the cells were fixed with 4% PFA in 1×DPBS for 15 minutes at room temperature. Subsequently, the cells were washed three times with DPBS. For the APEX reaction, JFT probes (100-500 μM) and H2O2 (0.5-1 mM) were used in 0.1 M PHEMS buffer for the specified time points. […] The detection of JFT fluorescence and immunofluorescence was performed using the GFP channel (excitation at 488 nm), RFP channel (excitation at 561 nm), and Cy5 channel (excitation at 647 nm) of a confocal light microscope 428 (FV3000, Olympus, Japan).
It was assessed whether JFT1 could react with APEX2 targeting various organelles under fixed conditions. […] Furthermore, JFT1 effectively generated a fluorescence signal with the APEX2-tagged POIs (APEX2-POIs) within specific compartments, including the mitochondrial matrix (Matrix-V5-APEX2), nucleus (V5-APEX2-NLS), and ER lumen (SEC61B-V5-APEX2) under fixed-cell conditions. […] These findings validate the wide applicability of JFT1 for APEX2-mediated fluorescence signal amplification (FLEX) in various subcellular organelles. […]

TOM20-V5-APEX2 = assay: Fixed-cell APEX labeling with TOM20-V5-APEX2 (confocal colocalization, line scan); assay type: cell-based, Human
Description: HeLa cells were transiently transfected with the APEX2-POI construct using PEI when cells reached approximately 70% confluency, following the protocol provided by the production company of PEI. After transfection and protein expression, the cells were fixed with 4% PFA in 1×DPBS for 15 minutes at room temperature. Subsequently, the cells were washed three times with DPBS. For the APEX reaction, JFT probes (100-500 μM) and H2O2 (0.5-1 mM) were used in 0.1 M PHEMS buffer for the specified time points. The APEX2-mediated reaction was quenched using a quencher solution (a mixture of sodium ascorbate, trolox, and sodium azide, see PMID: 23371551), and the cells were washed three times with DPBS buffer. For immunofluorescence imaging, the cells were permeabilized with −20° C. methanol for 5 minutes, followed by the standard immunofluorescence staining protocol. The detection of JFT fluorescence and immunofluorescence was performed using the GFP channel (excitation at 488 nm), RFP channel (excitation at 561 nm), and Cy5 channel (excitation at 647 nm) of a confocal light microscope 428 (FV3000, Olympus, Japan). […]

Matrix-V5-APEX2 = assay: Pre-embedding osmium treatment CLEM of JFT1-stained fixed Matrix-V5-APEX2 cells; assay type: cell-based; conditions: 500 μM JFT1, 1 mM H2O2, 5 min; 0.4% OsO4, dehydration, resin embedding, 100 nm ultrathin section
Description: To obtain the SEM-based CLEM images via pre-embedding osmium treatment procedure (FIG. 2C, lower), cells were fixed with 2.5% glutaraldehyde (Electron Microscopy Sciences, cat. No. 16200) and 2% paraformaldehyde (Electron Microscopy Sciences, cat. No. 19210) in 0.1 M cacodylate solution (pH 7.0) for 30 min at 4° C. After washing, 20 mM glycine solution was used for quenching unreacted aldehyde. Next, JFT1 probe labeling with 500 μM JFT1 and 0.5-1 mM H2O2, was conducted for 5 min. Next, JFT1-labeled cells were post-fixed with 0.4% osmium tetroxide (OsO4) containing 1.5% potassium ferrocyanide in distilled water for 30 min at 4° C. and en bloc in 1% uranyl acetate (EMS, USA, cat. No. 22400) overnight and dehydrated with a graded ethanol series. The samples were then embedded with an EMBed-812 embedding kit (Electron Microscopy Sciences, USA, cat. No. 14120) and polymerized in an oven at 60° C. […]
Given the significance of osmium staining in EM sample preparation, the preservation of JF and JFT1 fluorescence after OsO4 treatment was tested. Remarkably, both JF- and JFT1-stained APEX2-expressing regions retained 70-80% of the original osmium-resistant fluorescence intensity even after osmium treatment (0.1% OsO4), facilitating their detection using confocal microscopy (FIG. 2D). […]

## OCCn1cc(C[n+]2c(/C=C/c3ccc(O)cc3)sc3ccccc32)nn1 [JFT1, (E)-3-((1-(2-hydroxyethyl)-1H-1,2,3-triazol-4-yl)methyl)-2-(4-hydroxystyryl)benzo[d]thiazol-3-ium]
[1]; acidic pH (pH<7), excitation 405 or 450 nm
  green fluorescence Imax: 520 nm
[1]; pH 6.0
  absorbance spectra maximum: 416 nm
[1]; pH 7.4
  absorbance spectra maximum: 515 nm
organelle-targeted APEX2
  fluorescence signal in GFP channel: weak green fluorescence signal
  fluorescence signal in RFP channel: strong red fluorescence signal
TOM20-V5-APEX2; fixed cells, TOM20-V5-APEX2, RFP signal
  labeling pattern by line scan analysis vs anti-V5 stain: most optimal and restricted labeling pattern; also recorded: most well-matched pattern
TOM20-V5-APEX2; fixed sample, TOM20-V5-APEX2
  Pearson correlation coefficient (r) between probe-labeling region (RFP signal) and enzyme-expressed region (anti-V5 stain): 0.91
Matrix-V5-APEX2
  fluorescence signal after pre-embedding steps: well-preserved
